Key:
P. falciparum 3D7 = assay: growth inhibition of P. falciparum, SYBR green assay; type: cell-based, Plasmodium falciparum
intrinsic clearance = type: in vitro ADME, mouse; settings: for microsomal stability (CLi): female CD1 mouse liver microsomes, 0.5 µM compound; for microsomal stability / in vitro DMPK properties, in words: hepatic microsomes
[1] = plasma protein binding by equilibrium dialysis; type: in vitro ADME, mouse; settings: for plasma protein binding (% bound): female CD1 mouse plasma, equilibrium dialysis 5 h, 37 °C
recombinant PfTMPK [2] = target: T1, recombinant PfTMPK (Plasmodium falciparum, UniProt Q8I4S1); settings: read-out: Km of PfTMPK for TMP; substrate constant; cited from earlier work
T1 sequence (Q8I4S1 1-210): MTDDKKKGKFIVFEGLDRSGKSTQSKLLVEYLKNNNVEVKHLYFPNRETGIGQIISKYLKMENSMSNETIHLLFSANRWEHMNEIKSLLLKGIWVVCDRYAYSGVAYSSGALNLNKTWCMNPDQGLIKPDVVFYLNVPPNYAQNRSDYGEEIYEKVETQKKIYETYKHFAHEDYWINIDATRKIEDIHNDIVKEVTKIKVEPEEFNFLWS

recombinant PfTMPK [3] = target: T1, recombinant PfTMPK; assay: PfTMPK inhibition, coupled assay with pyruvate kinase and lactate dehydrogenase; type: biochemical

inhibitory activity against PfTMPK, in words (recombinant PfTMPK [3])	SMILES	activity against the parasite, in words (P. falciparum 3D7)	also measured
–	Cc1cn([C@@H]2C[C@H](O)[C@@H](CNC(=O)Nc3ccc(OCc4ccccc4)cc3)O2)c(=O)[nH]c1=O [Compound 60]	sub-micromolar activity	microsomal stability (CLi) (intrinsic clearance): 3 mL/min/g; microsomal stability / in vitro DMPK properties, in words (intrinsic clearance): good in vitro DMPK properties; plasma protein binding (% bound) [1]: 81.2 % bound
–	Cc1cn([C@H]2C[C@H](O)[C@@H](COP(=O)(O)O)O2)c(=O)[nH]c1=O [TMP, thymidine monophosphate]	–	Km (recombinant PfTMPK [2]): 11 µM
no or very low inhibitory activity	Cc1cn([C@H]2C[C@H](O)[C@@H](CNS(=O)(=O)c3ccc([N+](=O)[O-])cc3)O2)c(=O)[nH]c1=O [Compound 34]	–	–
–	Cc1cn([C@@H]2C[C@H](O)[C@@H](CNC(=O)Nc3ccc(OCc4ccccc4Cl)cc3)O2)c(=O)[nH]c1=O [Compound 84, N-(5′-Deoxy-α-thymidin-5′-yl)-N′-(4-(2-chlorobenzyloxy)phenyl)urea]	sub-micromolar activity	microsomal stability (CLi) (intrinsic clearance): 6 mL/min/g; microsomal stability / in vitro DMPK properties, in words (intrinsic clearance): rapid turnover; plasma protein binding (% bound) [1]: 94.1 % bound
no or very low inhibitory activity	Cc1cn([C@H]2C[C@H](O)[C@@H](CNC(=O)c3ccc4ccccc4c3)O2)c(=O)[nH]c1=O [Compound 36]	–	–
–	Cc1cn([C@@H]2C[C@H](O)[C@@H](CNC(=O)Nc3ccc(OCc4ccc(Cl)cc4)cc3)O2)c(=O)[nH]c1=O [Compound 86, N-(5′-Deoxy-α-thymidin-5′-yl)-N′-(4-(4-chlorobenzyloxy)phenyl)urea]	sub-micromolar activity	–
no or very low inhibitory activity	Cc1cn([C@H]2C[C@H](O)[C@@H](CNC(=O)c3ccc([N+](=O)[O-])cc3)O2)c(=O)[nH]c1=O [Compound 37]	–	–
no or very low inhibitory activity	Cc1cn([C@@H]2C[C@H](O)[C@@H](CNCc3ccc([N+](=O)[O-])cc3)O2)c(=O)[nH]c1=O [Compound 13]	–	–
–	COc1ccc(NC(=O)NC[C@H]2O[C@H](n3cc(C)c(=O)[nH]c3=O)C[C@@H]2O)cc1 [Compound 26]	–	increase in potency against the parasite compared to compound 17 (P. falciparum 3D7; ratio of EC50 values versus starting compound 17): 10 fold
no or very low inhibitory activity	Cc1cn([C@@H]2C[C@H](O)[C@@H](CNS(=O)(=O)c3ccc([N+](=O)[O-])cc3)O2)c(=O)[nH]c1=O [Compound 9]	–	–
–	Cc1cn([C@@H]2C[C@H](O)[C@@H](CNC(=O)Nc3ccc(OCc4cccc(Cl)c4)cc3)O2)c(=O)[nH]c1=O [Compound 85, N-(5′-Deoxy-α-thymidin-5′-yl)-N′-(4-(3-chlorobenzyloxy)phenyl)urea]	sub-micromolar activity	–
no or very low inhibitory activity	Cc1cn([C@H]2C[C@H](O)[C@@H](CNS(=O)(=O)c3ccc4ccccc4c3)O2)c(=O)[nH]c1=O [Compound 35]	–	–
–	Cc1cn([C@H]2C[C@H](O)[C@@H](CNC(=O)Nc3ccc(OCc4ccccc4Cl)cc3)O2)c(=O)[nH]c1=O [Compound 89]	sub-micromolar activity	drop in activity of β-derivative relative to α-derivative 84 (P. falciparum 3D7): 20 fold
no or very low inhibitory activity	Cc1cn([C@@H]2C[C@H](O)[C@@H](CNC(=O)c3ccc([N+](=O)[O-])cc3)O2)c(=O)[nH]c1=O [Compound 12]	–	–
no or very low inhibitory activity	Cc1cn([C@@H]2C[C@H](O)[C@@H](CNC(=O)c3ccc4ccccc4c3)O2)c(=O)[nH]c1=O [Compound 11]	–	–
–	Cc1cn([C@@H]2C[C@H](O)[C@@H](CNC(=O)Nc3ccc(Oc4ccccc4)cc3)O2)c(=O)[nH]c1=O [Compound 66]	sub-micromolar activity	microsomal stability (CLi) (intrinsic clearance): 1.8 mL/min/g; microsomal stability / in vitro DMPK properties, in words (intrinsic clearance): good in vitro DMPK properties; plasma protein binding (% bound) [1]: 90.5 % bound
–	Cc1cn([C@@H]2C[C@H](O)[C@@H](CNC(=O)Nc3ccc(N4CCCCC4)cc3)O2)c(=O)[nH]c1=O [Compound 63]	sub-micromolar activity	microsomal stability (CLi) (intrinsic clearance): 0.5 mL/min/g; microsomal stability / in vitro DMPK properties, in words (intrinsic clearance): good in vitro DMPK properties; unbound fraction in plasma, in words [1]: particularly large unbound fraction; plasma protein binding (% bound) [1]: 52.3 % bound
no or very low inhibitory activity	Cc1cn([C@@H]2C[C@H](O)[C@@H](CNS(=O)(=O)c3ccc4ccccc4c3)O2)c(=O)[nH]c1=O [Compound 10]	–	–
–	COc1ccc(COc2ccc(NC(=O)NC[C@H]3O[C@H](n4cc(C)c(=O)[nH]c4=O)C[C@@H]3O)cc2)cc1 [Compound 87, N-(5′-Deoxy-α-thymidin-5′-yl)-N′-(4-(4-methyoxybenzyloxy)phenyl)urea]	sub-micromolar activity	–
no or very low inhibitory activity	Cc1cn([C@H]2C[C@H](O)[C@@H](CNCc3ccc([N+](=O)[O-])cc3)O2)c(=O)[nH]c1=O [Compound 38]	–	–
–	Cc1cn([C@@H]2C[C@H](O)[C@@H](CNC(=O)Nc3ccc(-c4ccccc4)cc3)O2)c(=O)[nH]c1=O [Compound 57]	sub-micromolar activity	microsomal stability (CLi) (intrinsic clearance): 1.9 mL/min/g; microsomal stability / in vitro DMPK properties, in words (intrinsic clearance): good in vitro DMPK properties; plasma protein binding (% bound) [1]: 92.0 % bound

— publication PMC3530961 (Journal of Medicinal Chemistry, 2012)
